In US9212182B2, “Bicyclic sulfonamide compounds as sodium channel inhibitors” (AMGEN INC., priority 2013, dated 2015):

target: Nav 1.7 (Homo sapiens (Human), UniProt Q15858); experiment: in-vitro Nav 1.7 PX (IC50); format: cell-based; conditions: not given
Sequence (Q15858 whole entry): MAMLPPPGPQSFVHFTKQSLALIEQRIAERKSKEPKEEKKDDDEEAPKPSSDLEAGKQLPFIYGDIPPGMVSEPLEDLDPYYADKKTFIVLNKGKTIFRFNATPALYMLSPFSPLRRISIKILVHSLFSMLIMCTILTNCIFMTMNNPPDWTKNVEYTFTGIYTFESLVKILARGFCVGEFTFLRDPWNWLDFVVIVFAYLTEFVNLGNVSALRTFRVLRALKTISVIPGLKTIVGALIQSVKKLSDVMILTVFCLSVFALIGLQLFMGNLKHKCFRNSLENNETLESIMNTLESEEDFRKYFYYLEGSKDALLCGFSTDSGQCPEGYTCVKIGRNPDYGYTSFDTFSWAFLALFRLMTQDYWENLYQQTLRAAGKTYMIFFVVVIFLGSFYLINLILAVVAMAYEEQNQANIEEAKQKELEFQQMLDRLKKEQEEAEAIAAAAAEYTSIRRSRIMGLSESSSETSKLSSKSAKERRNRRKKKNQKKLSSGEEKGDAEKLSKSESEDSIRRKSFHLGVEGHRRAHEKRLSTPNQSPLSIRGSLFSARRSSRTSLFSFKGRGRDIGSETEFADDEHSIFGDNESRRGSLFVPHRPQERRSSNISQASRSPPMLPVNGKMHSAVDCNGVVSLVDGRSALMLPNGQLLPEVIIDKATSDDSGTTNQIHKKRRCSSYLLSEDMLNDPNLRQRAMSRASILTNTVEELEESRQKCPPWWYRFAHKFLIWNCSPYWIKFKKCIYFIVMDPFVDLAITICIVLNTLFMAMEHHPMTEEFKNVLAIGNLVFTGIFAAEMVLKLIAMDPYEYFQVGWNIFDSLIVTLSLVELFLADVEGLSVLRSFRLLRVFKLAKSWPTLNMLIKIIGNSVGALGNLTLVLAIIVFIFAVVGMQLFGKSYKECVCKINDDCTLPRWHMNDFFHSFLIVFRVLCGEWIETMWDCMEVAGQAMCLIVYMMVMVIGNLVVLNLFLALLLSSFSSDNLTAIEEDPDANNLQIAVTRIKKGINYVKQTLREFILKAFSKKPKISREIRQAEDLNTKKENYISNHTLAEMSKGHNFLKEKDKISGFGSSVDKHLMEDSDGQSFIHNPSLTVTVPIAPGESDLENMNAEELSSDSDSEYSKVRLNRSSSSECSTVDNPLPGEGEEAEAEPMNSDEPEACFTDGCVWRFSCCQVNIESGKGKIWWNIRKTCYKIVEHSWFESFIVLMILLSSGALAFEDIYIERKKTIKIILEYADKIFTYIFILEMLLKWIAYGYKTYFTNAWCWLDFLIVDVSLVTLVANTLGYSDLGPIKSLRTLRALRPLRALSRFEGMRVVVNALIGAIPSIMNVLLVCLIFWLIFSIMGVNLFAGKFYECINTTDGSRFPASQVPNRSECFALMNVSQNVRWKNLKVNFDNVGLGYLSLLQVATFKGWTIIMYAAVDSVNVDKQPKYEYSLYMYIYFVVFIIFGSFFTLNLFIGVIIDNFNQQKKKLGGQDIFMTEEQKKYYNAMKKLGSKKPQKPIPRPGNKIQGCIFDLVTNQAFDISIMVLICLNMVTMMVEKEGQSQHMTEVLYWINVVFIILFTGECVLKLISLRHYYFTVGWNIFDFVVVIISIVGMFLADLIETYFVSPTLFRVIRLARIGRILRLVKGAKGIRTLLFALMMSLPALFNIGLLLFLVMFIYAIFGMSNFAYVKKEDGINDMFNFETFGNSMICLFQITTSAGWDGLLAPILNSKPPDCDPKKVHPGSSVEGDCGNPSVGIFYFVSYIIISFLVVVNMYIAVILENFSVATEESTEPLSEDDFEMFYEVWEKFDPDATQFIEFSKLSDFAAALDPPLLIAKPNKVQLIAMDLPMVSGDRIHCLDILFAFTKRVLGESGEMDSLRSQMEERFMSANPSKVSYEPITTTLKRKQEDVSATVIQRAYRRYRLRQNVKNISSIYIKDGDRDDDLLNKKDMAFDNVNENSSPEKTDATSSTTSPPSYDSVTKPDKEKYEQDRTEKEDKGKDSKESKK

| Compound | IC50 [nM] |
| --- | --- |
| COc1cc(-c2cccc(C)c2)ccc1-n1c(=O)ccc2cc(S(=O)(=O)Nc3ccon3)ccc21 (atropisomer, axis not shown; (P)) [Example 584, (P)-N-3-isoxazolyl-1-(3-methoxy-3′-methyl-4-biphenylyl)-2-oxo-1,2-dihydro-6-quinolinesulfonamide] | 13 |
| COc1cc(-c2cc(F)cc(Cl)c2)ccc1-n1c(=O)ccc2cc(S(=O)(=O)Nc3ccon3)ccc21 (atropisomer, axis not shown; (M)) [Example 429, (M)-1-(3′-chloro-5′-fluoro-3-methoxy-4-biphenylyl)-N-3-isoxazolyl-2-oxo-1,2-dihydro-6-quinolinesulfonamide] | 1590 |
| COc1cc(-c2ccc(Cl)c(F)c2)ccc1-n1c(=O)ccc2cc(S(=O)(=O)Nc3ccon3)ccc21 (atropisomer, axis not shown; (M)) [Example 579, (M)-1-(4′-chloro-3′-fluoro-3-methoxy-4-biphenylyl)-N-3-isoxazolyl-2-oxo-1,2-dihydro-6-quinolinesulfonamide] | 4310 |
| O=c1ccc2cc(S(=O)(=O)Nc3ccon3)ccc2n1-c1cc(F)c(-c2cc(F)cc(F)c2)cc1OC1CNC1 [Example 670, 1-(5-(azetidin-3-yloxy)-2,3′,5′-trifluoro-[1,1′-biphenyl]-4-yl)-N-(isoxazol-3-yl)-2-oxo-1,2-dihydroquinoline-6-sulfonamide 2,2,2-trifluoroacetate] | 39 |
| COc1cc(Br)ccc1-n1c(=O)ccc2cc(S(=O)(=O)Nc3ccon3)ccc21 (atropisomer, axis not shown; (P)) [Example 574, (P)-1-(4-bromo-2-methoxyphenyl)-N-3-isoxazolyl-2-oxo-1,2-dihydro-6-quinolinesulfonamide] | 772 |
| COc1cc(-c2cccc(Cl)c2)cc(F)c1-n1c(=O)ccc2cc(S(=O)(=O)Nc3ccon3)ccc21 (atropisomer, axis not shown; (M)) [Example 319, (M)-1-(3′-chloro-3-fluoro-5-methoxy-4-biphenylyl)-N-3-isoxazolyl-2-oxo-1,2-dihydro-6-quinolinesulfonamide] | 207 |

More lines, now with the values ahead:

| IC50 [nM] | Compound |
| --- | --- |
| 113 | COc1cc(C#CC2CCCC2)ccc1-n1c(=O)ccc2cc(S(=O)(=O)Nc3cccnn3)ccc21 (atropisomer, axis not shown; (P)) [Example 1239, (P)-1-(4-(cyclopentylethynyl)-2-methoxyphenyl)-2-oxo-N-3-pyridazinyl-1,2-dihydro-6-quinolinesulfonamide] |
| 146 | COc1cc(-c2ccc(-n3c(=O)cnc4cc(S(=O)(=O)Nc5ccon5)ccc43)c(OC)c2)ccc1C [Example 1197, 1-(3,3′-dimethoxy-4′-methyl-4-biphenylyl)-N-3-isoxazolyl-2-oxo-1,2-dihydro-6-quinoxalinesulfonamide] |

same assay, conditions: in-vitro Nav 1.7 PX data

| Compound | IC50 [nM] |
| --- | --- |
| COc1ccc(-c2cccc(Cl)c2C)cc1-n1c(=O)ccc2cc(S(=O)(=O)Nc3ccon3)ccc21 [Example 891, 1-(3′-chloro-4-methoxy-2′-methyl-3-biphenylyl)-N-3-isoxazolyl-2-oxo-1,2-dihydro-6-quinolinesulfonamide] | 20 |
| COc1cc(-c2cccc(C(F)(F)F)c2)ccc1-n1c(=O)ccc2cc(S(=O)(=O)Nc3ccncn3)ccc21 (atropisomer, axis not shown; (P)) [Example 671, (P)-1-(3-methoxy-3′-(trifluoromethyl)-4-biphenylyl)-2-oxo-N-4-pyrimidinyl-1,2-dihydro-6-quinolinesulfonamide] | 11 |
| COc1ccc(-c2ccc(F)cc2)cc1-n1c(=O)ccc2cc(S(=O)(=O)Nc3ccon3)ccc21 [Example 844, 1-(4′-fluoro-4-methoxy-3-biphenylyl)-N-3-isoxazolyl-2-oxo-1,2-dihydro-6-quinolinesulfonamide] | 215 |
| COc1cc(-c2ccc(C(F)(F)F)cc2)c(F)cc1-n1c(=O)ccc2cc(S(=O)(=O)Nc3cc(C)ncn3)ccc21 [Example 798, 1-(2-fluoro-5-methoxy-4′-(trifluoromethyl)-4-biphenylyl)-N-(6-methyl-4-pyrimidinyl)-2-oxo-1,2-dihydro-6-quinolinesulfonamide] | 49 |
| COc1cc(-c2cccc(C(F)(F)F)c2)c(F)cc1-n1c(=O)ccc2cc(S(=O)(=O)Nc3cccnn3)ccc21 [Example 820, 1-(2-fluoro-5-methoxy-3′-(trifluoromethyl)-4-biphenylyl)-2-oxo-N-3-pyridazinyl-1,2-dihydro-6-quinolinesulfonamide] | 18 |
| COc1cc(-c2cncc(F)c2)c(F)cc1-n1c(=O)ccc2cc(S(=O)(=O)Nc3ccon3)ccc21 [Example 730, 1-(5-fluoro-4-(5-fluoro-3-pyridinyl)-2-methoxyphenyl)-N-3-isoxazolyl-2-oxo-1,2-dihydro-6-quinolinesulfonamide] | 795 |
| COc1ccc(-c2ccc(Cl)cc2)cc1-n1c(=O)ccc2cc(S(=O)(=O)Nc3ccon3)ccc21 [Example 857, 1-(4′-chloro-4-methoxy-3-biphenylyl)-N-3-isoxazolyl-2-oxo-1,2-dihydro-6-quinolinesulfonamide] | 20 |
| COc1cc(-c2cc(Cl)cnc2OC)c(F)cc1-n1c(=O)ccc2cc(S(=O)(=O)Nc3ncco3)ccc21 [Example 776, 1-(4-(5-chloro-2-methoxy-3-pyridinyl)-5-fluoro-2-methoxyphenyl)-N-1,3-oxazol-2-yl-2-oxo-1,2-dihydro-6-quinolinesulfonamide] | 54 |
| COc1cc(Br)c(F)cc1-n1c(=O)ccc2cc(S(=O)(=O)Nc3cccc(C)n3)ccc21 [Example 989, 1-(4-bromo-5-fluoro-2-methoxyphenyl)-N-(6-methyl-2-pyridinyl)-2-oxo-1,2-dihydro-6-quinolinesulfonamide] | 8610 |
| COc1cc(-c2ccc(F)c(C)c2)c(F)cc1-n1c(=O)ccc2cc(S(=O)(=O)Nc3ccnc(C)n3)ccc21 [Example 944, 1-(2,4′-difluoro-5-methoxy-3′-methyl-4-biphenylyl)-N-(2-methyl-4-pyrimidinyl)-2-oxo-1,2-dihydro-6-quinolinesulfonamide] | 27 |
| COc1cc(-c2ccc(F)cc2)c(F)cc1-n1c(=O)ccc2cc(S(=O)(=O)Nc3cccnn3)ccc21 [Example 770, 1-(2,4′-difluoro-5-methoxy-4-biphenylyl)-2-oxo-N-3-pyridazinyl-1,2-dihydro-6-quinolinesulfonamide] | 33 |

The next lines start with the values.

| IC50 [nM] | Compound |
| --- | --- |
| 3910 | COc1cc([C@H]2CC[C@@H](OC)CC2)c(F)cc1-n1c(=O)ccc2cc(S(=O)(=O)Nc3ccon3)ccc21 [Example 1086, 1-(5-fluoro-2-methoxy-4-(cis-4-methoxycyclohexyl)phenyl)-N-3-isoxazolyl-2-oxo-1,2-dihydro-6-quinolinesulfonamide, 1-(5-fluoro-2-methoxy-4-(trans-4-methoxycyclohexyl)phenyl)-N-3-isoxazolyl-2-oxo-1,2-dihydro-6-quinolinesulfonamide] |
| 139 | COc1cc(-c2cc(C)cnc2OC)ccc1-n1c(=O)ccc2cc(S(=O)(=O)Nc3ccon3)ccc21 [Example 1022, N-3-isoxazolyl-1-(2-methoxy-4-(2-methoxy-5-methyl-3-pyridinyl)phenyl)-2-oxo-1,2-dihydro-6-quinolinesulfonamide] |
| 35 | COc1cc(-c2cccc(C)c2)c(F)cc1-n1c(=O)ccc2cc(S(=O)(=O)Nc3ncon3)ccc21 [Example 1114, 1-(2-fluoro-5-methoxy-3′-methyl-4-biphenylyl)-N-1,2,4-oxadiazol-3-yl-2-oxo-1,2-dihydro-6-quinolinesulfonamide] |
| 20300 | COc1nc(-c2cccc(C#N)c2)c(Cl)cc1-n1c(=O)ccc2cc(S(=O)(=O)Nc3ccon3)ccc21 [Example 1091, 1-(5-chloro-6-(3-cyanophenyl)-2-methoxy-3-pyridinyl)-N-3-isoxazolyl-2-oxo-1,2-dihydro-6-quinolinesulfonamide] |
| 88 | COc1cc(CC2CCCCC2)c(F)cc1-n1c(=O)ccc2cc(S(=O)(=O)Nc3ncc(F)cn3)ccc21 [Example 1111, 1-(4-(cyclohexylmethyl)-5-fluoro-2-methoxyphenyl)-N-(5-fluoro-2-pyrimidinyl)-2-oxo-1,2-dihydro-6-quinolinesulfonamide] |
| 268 | COc1cc(F)cc(-c2ccc(-n3c(=O)ccc4cc(S(=O)(=O)Nc5ncco5)ccc43)c(OC)c2)c1 [Example 1005, 1-(3′-fluoro-3,5′-dimethoxy-4-biphenylyl)-N-1,3-oxazol-2-yl-2-oxo-1,2-dihydro-6-quinolinesulfonamide] |

same assay, conditions: in-vitro Nav 1.7 PX data (PatchXpress)

| IC50 [nM] | Compound |
| --- | --- |
| 71 | COc1cc(-c2ccc(F)cc2)ccc1-n1c(=O)ccc2cc(S(=O)(=O)Nc3ccon3)ccc21 [Example 1069, 1-(4′-fluoro-3-methoxy-4-biphenylyl)-N-3-isoxazolyl-2-oxo-1,2-dihydro-6-quinolinesulfonamide] |
| 912 | O=c1ccc2cc(S(=O)(=O)Nc3ncns3)ccc2n1-c1ccc(-c2cc(F)cc(F)c2)cc1C1CC1 [Example 1049, 1-(3-cyclopropyl-3′,5′-difluoro-4-biphenylyl)-2-oxo-N-1,2,4-thiadiazol-5-yl-1,2-dihydro-6-quinolinesulfonamide] |

same assay, conditions: in-vitro PatchXpress (PX)

| IC50 [nM] | Compound |
| --- | --- |
| 4740 | COc1cc(-c2cccc(C)c2)c(F)cc1-n1c(=O)ccc2cc(S(=O)(=O)Nc3ccon3)ccc21 (atropisomer, axis not shown; (M)) [Example 523, (M)-1-(2-fluoro-5-methoxy-3′-methyl-4-biphenylyl)-N-3-isoxazolyl-2-oxo-1,2-dihydro-6-quinolinesulfonamide] |
| 3070 | COc1cc(-c2cc(F)cc(Cl)c2)ccc1-n1c(=O)ccc2cc(S(=O)(=O)Nc3cccnn3)ccc21 (atropisomer, axis not shown; (M)) [Example 481, (M)-1-(3′-chloro-5′-fluoro-3-methoxy-4-biphenylyl)-2-oxo-N-3-pyridazinyl-1,2-dihydro-6-quinolinesulfonamide] |
| 4840 | COc1cc(-c2ccc(C)c(C#N)c2)c(F)cc1-n1c(=O)ccc2cc(S(=O)(=O)Nc3ccon3)ccc21 (atropisomer, axis not shown; (M)) [Example 525, (M)-1-(3′-cyano-2-fluoro-5-methoxy-4′-methyl-4-biphenylyl)-N-3-isoxazolyl-2-oxo-1,2-dihydro-6-quinolinesulfonamide] |
